From patent US20250281629A1, “COMPOSITIONS AND METHODS FOR ANTI-PHOSPHOCHOLINE ACTIVE IMMUNOTHERAPY” (Duke University, priority 2022, published 2025)
Where no end group is shown, it is not given here.

Key:
macrophages (F4/80+) = assay: Nanofiber uptake in i.p. lavage cells, flow cytometry: macrophages; assay type: in vivo, mouse; conditions: 4 hours after i.p. injection of TAMRA-labeled nanofibers
Protocol: (§1) Nanofiber Uptake and Evaluation. The cell types present and their propensity to uptake nanofibers in the i.p. space was tested by injecting mice i.p. with 100 μL of 2 mM TAMRA-labeled fluorescent nanofibers. 4 hours later, mice were euthanized and i.p. lavage was conducted via the injection of 2 mL of cold 1×PBS into the peritoneal cavity and massaging the abdomen for 30 seconds. The solution was then carefully extracted from the i.p. space and the cells were isolated followed by rinsing with ice cold flow buffer (2% heat-inactivated FBS in 1×PBS). The cells present were treated with mouse BD Fc Block (Clone: 2.4G2) (BD Biosciences, 553142) in flow buffer on ice for 30 min and then washed and stained with antibodies against the following markers: CD5-APC (Clone: 53-7.3) (BioLegend, 100626), F4/80-PerCP/Cy5.5 (Clone: BM8) (BioLegend, 123128), CD19-APC/Cy7 (Clone: 6D5) (BioLegend, 115530), CD11c-PE/Cy7 (Clone: N418) (BioLegend, 117318), and CD86-BV605 (Clone: GL1) (BD Biosciences, 2272591) in flow buffer for 30 min on ice. TAMRA-fluorescence as an indication of nanofiber uptake was measured on the PE channel. Cells were then washed in flow buffer and stained with DAPI. Flow cytometry was conducted on a BD FACSCanto II cytometer and the results were analyzed using FlowJo software.

[1] = test system: mouse anti-PC IgM monoclonal antibody (Clone: BH8); assay: ELISA for measuring nanofiber epitope reactivity; assay type: binding; conditions: nanofibers coated at 0.2 mM; PC-BSA positive control
Protocol: ELISA for Measuring Nanofiber Epitope Reactivity. The reactivity of PC conjugation methods was determined via binding of a mouse anti-PC IgM monoclonal antibody (Clone: BH8) (Sigma, MABF2084) to nanofibers. Nanofibers were diluted to 0.2 mM and coated onto 96-well plates at 4° C. overnight. PC-BSA (Biosearch Technologies, PC-1011-10) was coated at 20 μg/mL in 1×PBS overnight as a positive control, and PBS was used as a negative control. The next day, the plates were washed using 1×PBS with 0.05% Tween 20 (1×PBST) and then blocked with Superblock blocking buffer solution (Thermo Fisher, 37515) three times. This was followed by the addition anti-PC IgM which was serially diluted in 1% BSA in 1×PBST by 5-fold steps beginning from 1:100 (5 μg/mL) and allowed to incubate for 2 h at room temperature. Anti-PC IgM bound to nanofibers was then detected with HRP-conjugated goat anti-mouse IgM (Southern Biotech, 1021-05) and the absorbance values at 450 nm were measured.

B1a cells (CD19+CD5+) = assay: Nanofiber uptake in i.p. lavage cells, flow cytometry: B1a cells; assay type: in vivo, mouse; conditions: 4 hours after i.p. injection
Protocol: as §1

[2] = Zeta potential of nanofibers; assay type: physicochemical; conditions: 1 mM conjugate coassembled with 1 mM Q11; 0.2 mM in 1×PBS, 25° C.
Protocol: Zeta Potential. Nanofibers were diluted to 0.2 mM in 1×PBS and zeta potential measurements were conducted at 25° C. using an Anton Paar Litesizer 500.

C57BL/6 mice = assay: Serum anti-PC antibody responses of immunized mice via ELISA (PC-BSA coated); assay type: in vivo, mouse; conditions: 10% Cys4-Q11 added to PC-Q11 or PCM-Q11 nanofibers; i.p.
Protocol: Mice and Immunizations. Female C57BL/6 mice (Envigo) age 6-10 weeks were used to initiate experiments except for the Il10^−/− colitis study where female B6.129P2-Il10^tm1Cgn/J (The Jackson Laboratory) mice age 5-7 weeks were used. While female mice were used for most experiments, age-matched male C57BL/6 mice (Envigo) were used in a one cycle acute DSS colitis model to confirm efficacy across sexes. Mice were housed at Duke University. All experimental procedures were performed on protocols (A264-18-11 and A199-21-09) approved by the Duke University Institutional Animal Care and Use Committee (IACUC). For subcutaneous immunizations, anesthetized mice were injected once behind each shoulder with 50 μL of 2 mM peptide nanofiber solution or 1×PBS. For intraperitoneal immunizations, mice were injected with 100 μL of 2 mM peptide nanofiber solution or 1×PBS. Nanofiber immunizations with adjuvant contained 10 μg CpG (ODN 1826, IAX-200-002-3001, Innaxon). For injections of only CpG, 10 μg of CpG in 100 μL 1×PBS was used. Mice were typically given three immunizations, with the specific boosting schedules stated in each figure caption, usually at weeks 0, 2, and 4, as this was determined to produce robust antibody responses in a short time frame.
Detection of Anti-PC Antibody Responses via ELISA. Anti-PC antibody responses in serum collected from the submandibular vein in mice were measured using ELISA. Briefly, plates were coated with 20 μg/mL PC-BSA (Biosearch Technologies, PC-1011-10) in 1×PBS or just 1×PBS at 4° C. overnight. The next day, the plates were washed using 1×PBST (1×PBS with 0.05% Tween 20) and then blocked three times with Superblock blocking buffer solution (Thermo Fisher, 37515). Serum diluted from 1:10^2 to 1:10^5 in 1% BSA in 1×PBST was the added to the plate and allowed to incubate for 2 h at room temperature. Anti-PC IgG was detected using HRP-conjugated Fcγ fragment-specific goat anti-mouse IgG (Jackson Immuno Research, 15-035-071). IgG subclasses and IgM anti-PC antibodies were detected using Southern Biotech HRP-conjugated goat anti-mouse antibodies (IgG1, IgG2b, IgG2c, IgG3, & IgM: 5300-05B). Area under the curve (AUC) measurements were calculated using background-subtracted absorbance values at dilutions from 1:10^2 to 1:10^5. Antibody titers were defined using an absorbance cutoff above background of 0.2 OD, where titer 2 represents an OD value greater than 0.2 at 1:10^2 dilution and so on up to titer 5 at 1:10^5 dilution.

AC-QQKFQFQFEQQ-NH2 (Ac-QQKFQFQFEQQ-NH2) [Q11]
macrophages staining positively for nanofibers (macrophages (F4/80+)): almost all macrophages staining positively for nanofibers | binding of anti-PC mAb to nanofibers [1]: not | CD86 activation marker on TAMRA+ B1a cells vs non-B1a cells (B1a cells (CD19+CD5+)): not seen

C5H14NO4P-SGSG-QQKFQFQFEQQ-NH2 (C5H14NO4P-SGSGQQKFQFQFEQQ-NH2) [pa-PC-Q11, phosphoramidate-linked PC-Q11]
zeta potential (surface charge) of nanofibers [2]: positively charged | binding of anti-PC mAb to nanofibers [1]: not

CCCCSGSG-QQKFQFQFEQQ-NH2 (CCCCSGSGQQKFQFQFEQQ-NH2; cysteine pairing not given here) [Cys4-Q11]
effect of extra cysteines on anti-PC antibody responses (C57BL/6 mice): did not significantly enhance or reduce the anti-PC antibody responses
